Experimental data published in the NIST ThermoML archive (doi:10.1021/je0301794).
Numbers after ± are expanded uncertainties.

Key:
[1] = xn = mol fraction of the nth substance listed; settings: 101.3 kPa, Liquid
[2] = excess molar enthalpy (molar enthalpy of mixing); xn = mol fraction of the nth substance listed; settings: 318.15 K, 101.3 kPa, Liquid

COC(=O)OC [dimethyl carbonate] + CCCCCC
mass density ([1]; 293.15 K, x1 = 0.0722): 677.3 ± 0.5 kg/m3 | mass density ([1]; 293.15 K, x1 = 0.1448): 696.6 ± 0.5 kg/m3 | mass density ([1]; 293.15 K, x1 = 0.2286): 720.8 ± 0.5 kg/m3 | mass density ([1]; 293.15 K, x1 = 0.3026): 744 ± 0.5 kg/m3 | mass density ([1]; 293.15 K, x1 = 0.4102): 780.8 ± 0.5 kg/m3 | mass density ([1]; 293.15 K, x1 = 0.5062): 817 ± 0.5 kg/m3 | mass density ([1]; 293.15 K, x1 = 0.6026): 857.1 ± 0.5 kg/m3 | mass density ([1]; 293.15 K, x1 = 0.7052): 904 ± 0.5 kg/m3 | mass density ([1]; 293.15 K, x1 = 0.7974): 950.5 ± 0.5 kg/m3 | mass density ([1]; 293.15 K, x1 = 0.901): 1008.3 ± 0.5 kg/m3 | mass density ([1]; 293.15 K, x1 = 0.9506): 1038.5 ± 0.6 kg/m3 | mass density ([1]; 293.15 K, x1 = 1): 1070 ± 0.6 kg/m3 | mass density ([1]; 298.15 K, x1 = 0.082): 674.9 ± 0.5 kg/m3 | mass density ([1]; 298.15 K, x1 = 0.1269): 686.7 ± 0.5 kg/m3 | mass density ([1]; 298.15 K, x1 = 0.2131): 710.9 ± 0.5 kg/m3 | mass density ([1]; 298.15 K, x1 = 0.3197): 744.1 ± 0.5 kg/m3 | mass density ([1]; 298.15 K, x1 = 0.3787): 764 ± 0.5 kg/m3 | mass density ([1]; 298.15 K, x1 = 0.4712): 797.6 ± 0.5 kg/m3 | mass density ([1]; 298.15 K, x1 = 0.5121): 813.4 ± 0.5 kg/m3 | mass density ([1]; 298.15 K, x1 = 0.6067): 852.6 ± 0.5 kg/m3 | mass density ([1]; 298.15 K, x1 = 0.6987): 894.5 ± 0.5 kg/m3 | mass density ([1]; 298.15 K, x1 = 0.842): 967.9 ± 0.5 kg/m3 | mass density ([1]; 298.15 K, x1 = 0.9248): 1015.9 ± 0.5 kg/m3 | mass density ([1]; 298.15 K, x1 = 0.9615): 1038.7 ± 0.6 kg/m3 | mass density ([1]; 298.15 K, x1 = 1): 1063.5 ± 0.6 kg/m3 | mass density ([1]; 303.15 K, x1 = 0.0468): 661.4 ± 0.5 kg/m3 | mass density ([1]; 303.15 K, x1 = 0.0991): 674.5 ± 0.5 kg/m3 | mass density ([1]; 303.15 K, x1 = 0.1951): 700.4 ± 0.5 kg/m3 | mass density ([1]; 303.15 K, x1 = 0.295): 730.4 ± 0.5 kg/m3 | mass density ([1]; 303.15 K, x1 = 0.3832): 759.5 ± 0.5 kg/m3 | mass density ([1]; 303.15 K, x1 = 0.4865): 797.1 ± 0.5 kg/m3 | mass density ([1]; 303.15 K, x1 = 0.5899): 838.7 ± 0.5 kg/m3 | mass density ([1]; 303.15 K, x1 = 0.696): 886.3 ± 0.5 kg/m3 | mass density ([1]; 303.15 K, x1 = 0.7947): 935.5 ± 0.5 kg/m3 | mass density ([1]; 303.15 K, x1 = 0.8939): 990.5 ± 0.5 kg/m3 | mass density ([1]; 303.15 K, x1 = 0.9436): 1020.3 ± 0.5 kg/m3 | mass density ([1]; 303.15 K, x1 = 1): 1056.5 ± 0.6 kg/m3 | mass density ([1]; 313.15 K, x1 = 0.0495): 652.7 ± 0.5 kg/m3 | mass density ([1]; 313.15 K, x1 = 0.1): 665.2 ± 0.5 kg/m3 | mass density ([1]; 313.15 K, x1 = 0.2092): 694.5 ± 0.5 kg/m3 | mass density ([1]; 313.15 K, x1 = 0.3093): 724.6 ± 0.5 kg/m3 | mass density ([1]; 313.15 K, x1 = 0.4043): 756.1 ± 0.5 kg/m3 | mass density ([1]; 313.15 K, x1 = 0.4941): 788.8 ± 0.5 kg/m3 | mass density ([1]; 313.15 K, x1 = 0.6052): 833.6 ± 0.5 kg/m3 | mass density ([1]; 313.15 K, x1 = 0.7063): 879.2 ± 0.5 kg/m3 | mass density ([1]; 313.15 K, x1 = 0.8046): 928.6 ± 0.5 kg/m3 | mass density ([1]; 313.15 K, x1 = 0.9014): 982.5 ± 0.5 kg/m3 | mass density ([1]; 313.15 K, x1 = 0.9497): 1011.6 ± 0.5 kg/m3 | mass density ([1]; 313.15 K, x1 = 1): 1043.4 ± 0.5 kg/m3 | mass density ([1]; 318.15 K, x1 = 0.0773): 654.9 ± 0.5 kg/m3 | mass density ([1]; 318.15 K, x1 = 0.1163): 664.6 ± 0.5 kg/m3 | mass density ([1]; 318.15 K, x1 = 0.1621): 676.6 ± 0.5 kg/m3 | mass density ([1]; 318.15 K, x1 = 0.2689): 706.8 ± 0.5 kg/m3 | mass density ([1]; 318.15 K, x1 = 0.3288): 725.3 ± 0.5 kg/m3 | mass density ([1]; 318.15 K, x1 = 0.4097): 752.4 ± 0.5 kg/m3 | mass density ([1]; 318.15 K, x1 = 0.4753): 776 ± 0.5 kg/m3 | mass density ([1]; 318.15 K, x1 = 0.5256): 795.2 ± 0.5 kg/m3 | mass density ([1]; 318.15 K, x1 = 0.5452): 803.1 ± 0.5 kg/m3 | mass density ([1]; 318.15 K, x1 = 0.5879): 820.6 ± 0.5 kg/m3 | mass density ([1]; 318.15 K, x1 = 0.6449): 845.2 ± 0.5 kg/m3 | mass density ([1]; 318.15 K, x1 = 0.6976): 869.3 ± 0.5 kg/m3 | mass density ([1]; 318.15 K, x1 = 0.7615): 900.4 ± 0.5 kg/m3 | mass density ([1]; 318.15 K, x1 = 0.8039): 922.2 ± 0.5 kg/m3 | mass density ([1]; 318.15 K, x1 = 0.8422): 942.9 ± 0.5 kg/m3 | mass density ([1]; 318.15 K, x1 = 0.8808): 964.3 ± 0.5 kg/m3 | mass density ([1]; 318.15 K, x1 = 0.9311): 993.8 ± 0.5 kg/m3 | mass density ([1]; 318.15 K, x1 = 0.9657): 1015.1 ± 0.5 kg/m3 | mass density ([1]; 318.15 K, x1 = 1): 1036.9 ± 0.5 kg/m3 | excess molar enthalpy ([2]; x1 = 0.088): 0.171 ± 0.00382 kcal/mol | excess molar enthalpy ([2]; x1 = 0.1762): 0.292 ± 0.00621 kcal/mol | excess molar enthalpy ([2]; x1 = 0.2418): 0.369 ± 0.00789 kcal/mol | excess molar enthalpy ([2]; x1 = 0.3259): 0.432 ± 0.00908 kcal/mol | excess molar enthalpy ([2]; x1 = 0.4027): 0.472 ± 0.0098 kcal/mol | excess molar enthalpy ([2]; x1 = 0.4703): 0.49 ± 0.0103 kcal/mol | excess molar enthalpy ([2]; x1 = 0.5162): 0.495 ± 0.0103 kcal/mol | excess molar enthalpy ([2]; x1 = 0.5554): 0.492 ± 0.0103 kcal/mol | excess molar enthalpy ([2]; x1 = 0.6261): 0.477 ± 0.01 kcal/mol | excess molar enthalpy ([2]; x1 = 0.6776): 0.455 ± 0.00956 kcal/mol | excess molar enthalpy ([2]; x1 = 0.7263): 0.421 ± 0.00884 kcal/mol | excess molar enthalpy ([2]; x1 = 0.7728): 0.381 ± 0.00813 kcal/mol | excess molar enthalpy ([2]; x1 = 0.8189): 0.323 ± 0.00693 kcal/mol | excess molar enthalpy ([2]; x1 = 0.866): 0.262 ± 0.00574 kcal/mol | excess molar enthalpy ([2]; x1 = 0.9005): 0.204 ± 0.00454 kcal/mol | excess molar enthalpy ([2]; x1 = 0.9393): 0.13 ± 0.00311 kcal/mol | excess molar enthalpy ([2]; x1 = 0.9822): 0.0471 ± 0.00143 kcal/mol | excess molar enthalpy ([2]; x1 = 1): 0 ± 0.000478 kcal/mol
